Experimental data: patent US6017919A, “Compounds and pharmaceutical use thereof” (Japan Tobacco Inc., priority 1996, dated 2000)

Tested on: anti-thy-1 antibody-induced nephritis
Assay: Anti-thy-1 antibody-induced nephritis model
Type: in vivo, male Wistar rats
Details: for Nuclear cell count in nephritic glomerulus / Urinary protein: oral, once a day until day 6, rats
Procedure: [IV] Anti-thy-1 antlbody-induced nephritis model (in vivo)
The test compound (prednisolone, compound of Example 7-35) was orally administered to male Wistar rats (6 weeks old), and one hour later, an anti-thy-1 antibody (ox-7, 0.938 mg/ml) was administered at 0.1 ml/rat from the tail vein. The test compound was administered once a day thereafter until day 6. At day 6, the rats were forcibly loaded with 8 ml of tap water and then deprived of water for consecutive 16 hours, during which period urine samples were taken from the rats. At day 7, the rats were killed by exsanguination. The kidney was removed, weighed and fixed with formalin, and tissue samples (PAS stained) were prepared therefrom. Evaluation was done by measuring urinary protein and nuclear cell count in nephritic glomerulus section. The test compound was prepared into a suspension with 0.5% HPMC and administered at 10 ml/kg per dose.
Sham no administration of anti-thy-1 antibody,
loaded with water and orally administered
Control administration of anti-thy-1 antibody,
Prednisolone administration of anti-thy-1 antibody,
Compound of Ex. 7-35 with said test compound

| Compound | Nuclear cell count in nephritic glomerulus (0.1 mg/kg) [nuclei/glomerulus] | Urinary protein (0.1 mg/kg) [mg/16 hr] | suppressive effect on increase in nuclear cell count in nephritic glomerulus (0.1 mg/kg, result in words) | suppressive effect on increase in urinary protein (0.1 mg/kg, result in words) | Nuclear cell count in nephritic glomerulus (3 mg/kg) [nuclei/glomerulus] | Urinary protein (3 mg/kg) [mg/16 hr] |
| --- | --- | --- | --- | --- | --- | --- |
| CCCCCOc1ccc2c(c1OCCCCC)CN(CCc1ccc(N)cc1)C2=O.Cl [Example 7-35, 2-[2-(4-aminophenyl)ethyl]-4,5-bispentyloxy-2,3-dihydroisoindol-1-one hydrochloride] | 84.8 ± 1.2 | 15.2 ± 2.4 | significant suppressive effect | significant suppressive effect |  |  |
| C[C@]12C=CC(=O)C=C1CC[C@@H]1[C@@H]2[C@@H](O)C[C@@]2(C)[C@H]1CC[C@]2(O)C(=O)CO [Prednisolone, prednisolone, reference compound] |  |  |  |  | 76.9 ± 0.9 | 20.9 ± 2.7 |
